Tests used:
[1] = molecular target: T1, ImmunoPure avidin (Pierce) outfitted with xanthone ET-sensitizer (Gallus gallus, UniProt P02701); assay: Photolytic tag-release binding screen of the tag-encoded model mini-library with avidin-xanthone conjugate in DPC micelles, GCMS detection of released dithiane tags; conditions: for dithiane tags encoding the library member detected in the GCMS chromatogram after the photolytic assay: dithiane-aldehyde adduct tags, 0.7 mM each tagged library member, 23 μM protein, 155 mM DPC, incubated 1 hour, irradiated 4 hours, 335 nm long pass filter, hexane extract
T1 construct: purchased Pierce
Protocol: The receptor, ImmunoPure® avidin (Pierce), was outfitted with xanthone as an ET-sensitizer. The N-hydroxysuccinimide ester of 11-(xanthone-2-carboxamido)undecanoic acid was coupled to avidin in a 20 mM sodium phosphate buffer according to a described procedure (Wilchek, Methods Enzymol), with subsequent purification on a Sephadex G-25 column. […] Tethering the xanthone-based sensitizer to avidin is no different from outfitting a receptor with a fluorophore for the conventional on-the-bead fluorescence-guided assays.
The screening volume was compartmentalized with micellar detergent, dodecyl phosphocholine (DPC), preventing indiscriminant collisional quenching of avidin-tethered xanthone by unbound molecules and thus limiting the ET sensitization exclusively to the bound host-guest complex. Besides the fact that amphiphiles displaying phosphocholine are common in biological settings, utilization of DPC micelles offers a number of additional benefits: (i) it ensures that the screening is always compatible with aqueous media, regardless of aqueous solubility of the tested libraries; (ii) it allows the design of the tagging system to be centered around readily available hydrophobic alkyl dithianes, which can be selectively extracted after irradiation with hexane or other non-polar solvents for unobstructed GCMS analysis; (iii) it spatially segregates the photofragmentation chemistry from molecular recognition, eliminating potential interference between them; (iv) it restricts the photochemistry to the micelle interior improving quantum efficiency of fragmentation, as it is known to increase in the non-polar environment; and, finally, (v) the micelle-assisted design offers an option of solubilizing certain target proteins, which are not water soluble. While not an issue with avidin, this functionality may be important in assaying insoluble membrane proteins, as recognized in the art.
A typical screening procedure involved solubilization of the mini-library, approximately 0.5 mg per tagged compound, in a 0.6 mL aqueous solution containing 60 mg of DPC. To this clear micellar solution 0.5 mL of avidin-xanthone conjugate was added, so the final concentrations were 0.7 mM of each library member carrying one tag (6.3 mM total), 23 μM protein and 155 mM DPC. The micelle-embedded molecules had apparent translational diffusion coefficients of 7×10^−7 cm^2s^−1, as measured with spin-echo pulse field gradient (PFG) ^1H NMR. […] Then the mixture was extracted with 0.5 mL of hexane, concentrated to 100 μL and analyzed by GCMS.
The generality of this approach is not limited to the tagging assemblies based on dithiane-aldehyde adducts. […] None of the other six dithianes were detected in the hexane extract after irradiation. […]

[2] = Benzophenone-sensitized photofragmentation of triazole 22 and its photostability without sensitizer; type: physicochemical
Protocol: To this end 3a was coupled with propargyl amine, providing the acetylenic tagging component S20 for the azide-acetylene click pair. Another readily available tag series was prepared from commercially available acetylenic benzaldehyde as shown in Scheme 12. The Staudinger ligation produces the benzamide linkage, found in compounds 4, 6 and 10, for example. Acetylene-azide click chemistry yields triazoles. […] Triazole 22 was unchanged after prolonged irradiation in the absence of the ET-sensitizer, showing no self-cleavage at wavelengths above 330 nm. This is a critically important finding because premature self-cleavage is detrimental to screening, as it produces false positives.

T1 sequence (P02701 25-152): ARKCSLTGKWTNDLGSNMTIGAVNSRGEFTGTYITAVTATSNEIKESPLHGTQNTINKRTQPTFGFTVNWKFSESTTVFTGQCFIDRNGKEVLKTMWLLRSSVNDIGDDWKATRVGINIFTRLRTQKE

Compound	dithiane tags encoding the library member detected in the GCMS chromatogram after the photolytic assay [1]	dithianes encoding the library member detected in the GCMS trace of the hexane extract after irradiation ([1]; mini-library tagged with nine thio ortho esters (19), three tags per member, DPC micellar solution, avidin-xanthone conjugate)	stability to irradiation (self-cleavage) ([2]; prolonged irradiation in the absence of the ET-sensitizer, wavelengths above 330 nm)	quantum efficiency of methyl dithiane release ([2]; upon benzophenone sensitization, compared with the parent (unsubstituted) benzaldehyde adduct)
NCCCCCCCCCCC(=O)O [aminoundecanoic acid, 11-aminoundecanoic acid]	not discernible at all	–	–	–
O=C(O)CCCC[C@@H]1SC[C@@H]2NC(=O)N[C@@H]21 [biotin]	detected	showed only the dithianes encoding biotin	–	–
COC(=O)CCCCCCCCCn1cc(-c2ccc(C(O)C3(C)SCCCS3)cc2)nn1 (stereo not drawn) [compound 22]	–	–	unchanged	very similar to the parent (unsubstituted) benzaldehyde adduct
N[C@H]1C(O)O[C@H](CO)[C@@H](O)[C@@H]1O (stereo partly drawn) [glucosamine]	not discernible at all	–	–	–
